Test results taken from patent publication US9556217B2, “Amphiphilic compounds” (WISCONSIN ALUMNI RESEARCH FOUNDATION, priority 2012, dated 2017).

Legend:
[1] = target: T1, melibiose permease (MelB) (Salmonella typhimurium, UniProt P30878); assay: MelB solubilization and thermostability (SDS-PAGE, immunoblot); conditions: 1.5 wt %; for MelB extraction from membranes at 0° C.: 10 min or 90 min
T1 construct: made in house; host or cells: E. coli DW2-R (ΔmelB, ΔlacZY), vector pK35ΔAHB/WT MelB/CH6
Method: DDM (1.5 wt %) or GDN (1.5 wt %) was used to extract MelB from S. typhimurium membranes at 0° C. for 10 min or 90 min and then aggregated material was removed via ultracentrifugation. The amount of MelB in solution was determined by SDS-PAGE with immunoblot detection (FIG. 10).
The effect of DDM and GDN on MelB thermostability was assessed by solubilizing the protein at the elevated temperatures for 90 min. […] Presumably MelB denatured and aggregated at the higher temperature in the presence of DDM. […] When MelB expressed in E. coli was used, similar results were obtained (FIG. 11).
The protocol reported by Chae and coworkers (Nat. Methods 2010, 7, 1003-1008) was used to evaluate MelB stability with DDM and GDN.
The reported protocol3 was used to evaluate MelB stability with DDM and GDN. Vector pK35ΔAHB/WT MelB/CH6 encoding the wild-type MelB with a 6-His tag at the C-terminus and E. coli DW2-R cells (ΔmelB and ΔlacZY) are used for the assay. Cells were harvested, resuspended in a buffer containing 20 mM Tris, pH 7.5, 200 mM NaCl and 10% glycerol. The harvested cells were subjected to French press and centrifugation at 20,000 g for 15 min. Subsequently, membranes were obtained via ultracentrifugation at 43,000 rpm for 3 hr in the Beckman rotor, Type 45 Ti rotor. A protein assay was carried out with a BCA kit (Thermo Scientific, Rockford, Ill.). For the measurement of solubilization efficiency, membrane samples containing MelB were incubated with a solubilization buffer (20 mM Tris, 200 mM NaCl, 10% glycerol, 20 mM melibiose, pH, 7.5) and 1.5 wt % DDM or GDN at 0° C. for 10 min. The final protein concentration was 10 mg/mL. For the MelB thermostability, the samples were incubated for 90 min at the four different temperatures (0, 45, 55, and 65° C.). After ultracentrifugation at 355,590 g in a Beckman Optima™ MAX Ultracentrifuge using a TLA-100 rotor for 45 min at 4° C., 10 μg protein before and after spin for each condition was analyzed by SDS-12% PAGE and immunoblotted with Penta-His-HRP antibody (Qiagen, Germantown, Md.).

[2] = target: T2, CMP-Sia fusion protein bearing green fluorescent protein (GFP) (Mus musculus, UniProt Q61420); assay: CMP-Sia-GFP fusion solubilization (fluorescence); conditions: 1 hr at 4° C., total fluorescence
T2 construct: made in house; host or cells: Saccharomyces cerevisiae FGY217
Method: The favorable MelB extraction performance of GDN led to the examination of this amphiphile for extraction of other IMPs. […] DDM and GDN were used to extract a CMP-Sia fusion protein bearing green fluorescent protein (GFP) at the C-terminus, after expression in Saccharomyces cerevisiae; the amount of solubilized protein was estimated by total fluorescence. GDN (2 wt %), DDM (1 wt %) and OG (1 wt %) gave ˜70%, ˜80% and ˜50% extraction yields, respectively.
The procedure was performed according to the protocol reported by Chae and coworkers (Nat. Methods 2010, 7, 1003-1008).
CMP-Sia was expressed as a fusion protein with a C-terminal GFP in FGY217 Saccharomyces cerevisiae cells. Cell lysis was conducted by using a cell disrupter (Constant Systems) and the protein samples were subjected to centrifugation at 15,000 g for 10 mins to remove unbroken cells and debris. Subsequently, the membranes were harvested by ultracentrifugation at 150,000 g for 45 min. The membranes were resuspended in 50 mM Tris-HCl (pH 7.6), 1 mM EDTA, 0.6 M sorbitol and the protein concentration was estimated using a BCA kit (Pierce). The membranes were incubated with OG or DDM at 1.0%, or GDN at 2.0% for 1 hr at 4° C. A fluorescence value was measured for each sample before and after ultracentrifugation at 150,000 g for 1 h. The solubilization efficiency was calculated via the fluorescence measurements of the soluble supernatant/the total sample.

T1 sequence (P30878 whole entry): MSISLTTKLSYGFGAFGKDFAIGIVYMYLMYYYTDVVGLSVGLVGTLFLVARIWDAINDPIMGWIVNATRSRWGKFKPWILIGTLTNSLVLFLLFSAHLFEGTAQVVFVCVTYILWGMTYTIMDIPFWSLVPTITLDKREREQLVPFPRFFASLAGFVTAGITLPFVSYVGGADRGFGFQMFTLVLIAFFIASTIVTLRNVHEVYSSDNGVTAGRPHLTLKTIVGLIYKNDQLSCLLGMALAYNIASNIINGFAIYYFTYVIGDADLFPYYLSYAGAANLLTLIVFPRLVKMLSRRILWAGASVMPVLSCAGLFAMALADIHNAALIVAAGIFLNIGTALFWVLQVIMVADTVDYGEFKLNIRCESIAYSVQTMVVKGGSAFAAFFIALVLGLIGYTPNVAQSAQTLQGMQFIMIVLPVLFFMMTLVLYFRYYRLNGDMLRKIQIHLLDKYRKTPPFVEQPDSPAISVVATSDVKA

Compound | MelB extraction from membranes at 0° C. [1] | Soluble MelB at 45° C. ([1]; 90 min, 45° C.) | Soluble MelB at 55° C. ([1]; 90 min) | CMP-Sia-GFP extraction yield ([2]; 1 wt %) [%] | Soluble MelB at 65° C. ([1]; 90 min, 65° C.) | CMP-Sia-GFP extraction yield ([2]; 2 wt %) [%]
CCCCCCCCCCCCO[C@@H]1O[C@H](CO)[C@@H](O[C@H]2O[C@H](CO)[C@@H](O)[C@H](O)[C@H]2O)[C@H](O)[C@H]1O [DDM, dodecyl-β-D-maltoside, reference compound] | quantitatively extract | high yield of soluble MelB | no soluble protein was obtained | ~80 | – | –
C[C@@H]1CC[C@@]2(OC1)O[C@H]1C[C@H]3[C@@H]4CC=C5C[C@@H](OCCC(CO[C@@H]6OC(CO)[C@@H](O[C@H]7OC(CO)[C@@H](O)C(O)C7O)C(O)C6O)CO[C@@H]6OC(CO)[C@@H](O[C@H]7OC(CO)[C@@H](O)C(O)C7O)C(O)C6O)CC[C@]5(C)[C@H]4CC[C@]3(C)[C@@H]1[C@@H]2C (some centres unmarked) [GDN, glyco-diosgenin] | not quite as efficient in extraction | – | large amounts of soluble protein | – | large amounts of soluble protein | ~70
